Each block holds one compound with its values, some of them ahead of it. Calls of active or inactive are those of the source. No cut-off for these calls is given here.
How the values were obtained:
[1] = target: Sigma intracellular receptor 2 (Homo sapiens) (UniProt Q5BJF2); assay: Antagonist activity at sigma 2 receptor in human MCF7 cells assessed as reduction in intracellular calcium release at 30 uM incubated for 3 hrs by Fluo-3 AM dye based confocal laser scanning microscopy; assay type: cell-based; settings: filed as antagonist
Chain of Sigma intracellular receptor 2 (Homo sapiens) (Q5BJF2 whole entry): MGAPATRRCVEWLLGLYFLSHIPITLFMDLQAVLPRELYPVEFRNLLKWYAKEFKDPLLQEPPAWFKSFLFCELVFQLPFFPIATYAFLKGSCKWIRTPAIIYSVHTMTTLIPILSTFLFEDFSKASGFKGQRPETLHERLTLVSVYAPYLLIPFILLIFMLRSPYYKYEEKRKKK

[2] = target: T1, Sigma intracellular receptor 2 (Rattus norvegicus, UniProt Q5U3Y7); assay: Displacement of [125I]-RHM-4 from sigma 2 receptor in rat liver membranes after 120 mins by microbeta scintillation counting method; assay type: cell membranes, Membrane
T1 sequence (Q5U3Y7 whole entry): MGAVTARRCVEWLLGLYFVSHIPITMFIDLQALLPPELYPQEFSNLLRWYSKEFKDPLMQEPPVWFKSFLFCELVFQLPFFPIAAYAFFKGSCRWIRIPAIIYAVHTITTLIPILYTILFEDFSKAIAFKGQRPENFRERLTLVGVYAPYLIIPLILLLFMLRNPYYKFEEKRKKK

[3] = target: Sigma non-opioid intracellular receptor 1 (Cavia porcellus, UniProt Q60492); assay: Displacement of [3H](+)-pentazocine from sigma 1 receptor in guinea pig brain membranes after 120 mins by microbeta scintillation counting method; assay type: cell membranes, Membrane
Chain of Sigma non-opioid intracellular receptor 1 (Q60492 whole entry): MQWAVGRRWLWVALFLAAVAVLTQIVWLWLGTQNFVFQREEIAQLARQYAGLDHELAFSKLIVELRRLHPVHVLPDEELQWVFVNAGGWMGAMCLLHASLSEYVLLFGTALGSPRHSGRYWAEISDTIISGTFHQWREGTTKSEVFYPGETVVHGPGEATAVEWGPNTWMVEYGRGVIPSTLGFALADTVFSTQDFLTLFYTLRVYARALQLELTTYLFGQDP

[4] = test system: MCF-10A; assay: Cytotoxicity against human MCF-10A cells assessed as reduction in cell viability at 1 to 100 uM incubated for 24 to 48 hrs by CCK-8 assay; assay type: cell-based; settings: dose lower 1 µM, time lower 24 hrs, dose upper 100 µM, time upper 48 hrs
[5] = test system: MCF7; assay: Cytotoxicity against human MCF7 cells assessed as reduction in cell viability at 1 to 100 uM incubated for 24 to 48 hrs by CCK-8 assay; assay type: functional, cell-based; settings: dose 1-100 µM, time 24-48 hrs
[6] = test system: MCF7; assay: Cytotoxicity against human MCF7 cells assessed as reduction in cell viability incubated for 24 to 48 hrs by CCK-8 assay; assay type: functional, cell-based
[7] = test system: MCF-10A; assay: Cytotoxicity against human MCF-10A cells assessed as reduction in cell viability incubated for 24 to 48 hrs by CCK-8 assay; assay type: cell-based
[8] = Selectivity ratio of Ki for displacement of [3H](+)-pentazocine from sigma 1 receptor in guinea pig brain membranes to Ki for displacement of [125I]-RHM-4 from sigma2 receptor in rat liver membranes; assay type: cell membranes
[9] = test system: MCF7; assay: Cytotoxicity against human MCF7 cells assessed as reduction in cell viability incubated for 48 hrs by CCK-8 assay; assay type: functional, cell-based; settings: MCF7, 48 h
[10] = test system: MCF-10A; assay: Cytotoxicity against human MCF-10A cells assessed as reduction in cell viability incubated for 24 hrs by CCK-8 assay; assay type: cell-based
[11] = test system: MCF7; assay: Cytotoxicity against human MCF7 cells assessed as reduction in cell viability incubated for 24 hrs by CCK-8 assay; assay type: functional, cell-based
[12] = test system: MCF-10A; assay: Cytotoxicity against human MCF-10A cells assessed as reduction in cell viability incubated for 48 hrs by CCK-8 assay; assay type: cell-based
[13] = test system: HepG2; assay: Cytotoxicity against human HepG2 cells assessed as reduction in cell viability incubated for 24 to 48 hrs in presence of cisplatin by CCK-8 assay; assay type: functional, cell-based; settings: time 24-48 hrs
[14] = test system: MDA-MB-231; assay: Cytotoxicity against human MDA-MB-231 cells assessed as reduction in cell viability incubated for 24 to 48 hrs in presence of cisplatin by CCK-8 assay; assay type: functional, cell-based; settings: time 24-48 hrs
[15] = test system: KYSE-140; assay: Cytotoxicity against human KYSE-140 cells assessed as reduction in cell viability incubated for 24 to 48 hrs in presence of cisplatin by CCK-8 assay; assay type: functional, cell-based; settings: time 24-48 hrs
[16] = test system: MCF7; assay: Cytotoxicity against human MCF7 cells assessed as reduction in cell viability incubated for 24 to 48 hrs in presence of cisplatin by CCK-8 assay; assay type: functional, cell-based; settings: time 24-48 hrs
[17] = target: Sigma intracellular receptor 2 (Homo sapiens) (UniProt Q5BJF2); assay: Agonist activity at sigma 2 receptor in human MCF7 cells assessed as stimulation of intracellular calcium release at 10 uM incubated for 3 hrs by Fluo-3 AM dye based confocal laser scanning microscopy; assay type: cell-based; settings: filed as agonist
[18] = Homo sapiens, MCF-10A, 24 h, read-out: IC50
[19] = Homo sapiens, MCF7, 24 h, read-out: IC50

- Activity [1]: Active
SMILES: COc1cc2c(cc1OC)CN(CCCCNC(=O)c1cc(C)ccc1OC)CC2

- Ki [2]: > 1 µM
- Ki [3]: > 1 µM
SMILES: COc1cc2c(c(OC)c1OC)CN(CCCC(=O)c1c(C)c(OC)c(OC)c(OC)c1OC)CC2

- Activity [1]: Active
- Ki [2]: 0.00038 µM
- Ki [3]: > 1 µM
SMILES: COc1cc2c(cc1OC)CN(CCCCCC(=O)c1c(C)c(OC)c(OC)c(OC)c1OC)CC2
- Activity [4]: Non-Toxic
- Activity [5]: inactive
- IC50 [6]: > 100 µM
- IC50 [7]: > 100 µM

- Ratio Ki [8]: > 24
- Ki [2]: 0.04 µM
- Ki [3]: > 1 µM
SMILES: COc1cc2c(c(OC)c1OC)CCN(CCCCCCC(=O)c1c(C)c(OC)c(OC)c(OC)c1OC)C2

- Ratio Ki [8]: > 79
- Ki [2]: 0.0126 µM
- Ki [3]: > 1 µM
SMILES: COc1cc2c(c(OC)c1OC)CN(CCCCCC(=O)c1c(C)c(OC)c(OC)c(OC)c1OC)CC2

- Ki [2]: 11.5 µM
- Ki [3]: > 1 µM
SMILES: COc1cc2c(c(OC)c1OC)CCN(CCC(=O)c1c(C)c(OC)c(OC)c(OC)c1OC)C2

- Ratio Ki [8]: > 24
- Ki [2]: 0.0418 µM
- Ki [3]: > 1 µM
SMILES: COc1cc2c(c(OC)c1OC)CCN(CCCC(=O)c1c(C)c(OC)c(OC)c(OC)c1OC)C2

- Ki [2]: 3.18 µM
- Ki [3]: > 1 µM
SMILES: COc1cc2c(c(OC)c1OC)CN(CCC(=O)c1c(C)c(OC)c(OC)c(OC)c1OC)CC2
- IC50 [9]: 19.7 µM
- IC50 [10, 18]: 45.9 µM
- IC50 [11, 19]: 25.5 µM
- IC50 [12]: 27.4 µM

- Ki [2]: 0.956 µM
- Ki [3]: 3.19 µM
SMILES: COc1cc2c(cc1OC)CN(CCC(=O)c1c(C)c(OC)c(OC)c(OC)c1OC)CC2
- Activity [13]: Active
- Activity [14]: Active
- Activity [15]: Active
- IC50 [9]: 8.09 µM
- Activity [16]: Active
- IC50 [10, 18]: 11.9 µM
- IC50 [11, 19]: 11.5 µM
- IC50 [12]: 9.77 µM

- Ratio Ki [8]: > 50
- Ki [2]: 0.0197 µM
- Ki [3]: > 1 µM
SMILES: COc1cc2c(c(OC)c1OC)CCN(CCCCCC(=O)c1c(C)c(OC)c(OC)c(OC)c1OC)C2

- Activity [17]: Active
SMILES: Fc1ccc(-n2cc(CCCCN3CCC4(CC3)OCc3ccccc34)c3ccccc32)cc1

- Activity [1]: Active
- Ki [2]: 0.00133 µM
- Ki [3]: > 1 µM
SMILES: COc1cc2c(cc1OC)CN(CCCCCCC(=O)c1c(C)c(OC)c(OC)c(OC)c1OC)CC2
- IC50 [9]: 51.1 µM
- IC50 [10, 18]: 54.2 µM
- IC50 [11, 19]: 70.7 µM
- IC50 [12]: 32.3 µM

- Ki [2]: > 1 µM
- Ki [3]: > 1 µM
SMILES: COc1cc2c(c(OC)c1OC)CN(CCCCCCC(=O)c1c(C)c(OC)c(OC)c(OC)c1OC)CC2
- IC50 [9]: 39.7 µM
- IC50 ([10]; mcf-10a): Not Active
- IC50 ([11]; mcf7): Not Active
- IC50 [12]: 23.5 µM

- Activity [1]: Active
- Ki [2]: 0.003 µM
- Ki [3]: 0.16 µM
SMILES: COc1cc2c(cc1OC)CN(CCCCC(=O)c1c(C)c(OC)c(OC)c(OC)c1OC)CC2
- Activity [4]: Non-Toxic
- Activity [5]: inactive
- IC50 [6]: > 100 µM
- IC50 [7]: > 100 µM

- Ratio Ki [8]: > 29
- Ki [2]: 0.0342 µM
- Ki [3]: > 1 µM
SMILES: COc1cc2c(c(OC)c1OC)CCN(CCCCC(=O)c1c(C)c(OC)c(OC)c(OC)c1OC)C2

- Activity [1]: Active
- Ki [2]: 0.0051 µM
- Ki [3]: > 1 µM
SMILES: COc1cc2c(cc1OC)CN(CCCC(=O)c1c(C)c(OC)c(OC)c(OC)c1OC)CC2
- Activity [4]: Non-Toxic
- Activity [5]: inactive
- IC50 [6]: > 100 µM
- IC50 [7]: > 100 µM

- Ratio Ki [8]: > 44
- Ki [2]: 0.0224 µM
- Ki [3]: > 1 µM
SMILES: COc1cc2c(c(OC)c1OC)CN(CCCCC(=O)c1c(C)c(OC)c(OC)c(OC)c1OC)CC2

Reference: ChEMBL document CHEMBL4732061, “Synthesis, binding, and functional properties of tetrahydroisoquinolino-2-alkyl phenones as selective σR/TMEM97 ligands” (Eur J Med Chem, 2021)
